Measurements from ChEMBL document CHEMBL1201862, “PubChem BioAssay data set” (2004).
Active and inactive are the calls of the source.

Experiments:
HEK293 [1] = assay: cells; assay type: functional, cell-based; conditions: Homo sapiens
HEK293 [2] = assay: NOD2 signaling inhibitors in MDP-stimulated cells, cell-based, uHTS, luminescence (AID 2001); assay type: functional; conditions: Homo sapiens
[3] = reduction of Shn3 3'UTR-driven luciferase in osteoblasts – cell-based, Clone20 osteoblasts, firefly luciferase, cherry-picked, dose response (AID 624132); assay type: functional;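 also: firefly luciferase luminescence from reporter carrying the Shn3 3'UTR in osteoblasts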
[4] = NIH3T3 cell viability loss – ATP luminescence, mouse fibroblasts, counter-screen, dose response (AID 2010); assay type: functional, cell-based;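 also: cells exposed to compound for about 90 hours before reading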
[5] = viability of HCT116 lacking mutant beta-catenin – cell-based, human colon tumor, dose response (AID 1045); assay type: functional;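 also: HCT116 colon tumor cells with beta catenin knocked out; cells exposed to compound for 60 hours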
[6] = target: T1, Heat shock factor protein 1 (Mus musculus, UniProt P38532); assay: decrease of HSF1-responsive luciferase luminescence – cell-based, NIH3T3, dose retest, confirmation (AID 2382); assay type: functional;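 also: NIH3T3 fibroblasts with HSF1-driven luciferase reporter stressed by proteasome inhibitor MG132; luminescence from HSF1-driven luciferase expression after 8 hours of MG132 stress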
T1 sequence (P38532 whole entry): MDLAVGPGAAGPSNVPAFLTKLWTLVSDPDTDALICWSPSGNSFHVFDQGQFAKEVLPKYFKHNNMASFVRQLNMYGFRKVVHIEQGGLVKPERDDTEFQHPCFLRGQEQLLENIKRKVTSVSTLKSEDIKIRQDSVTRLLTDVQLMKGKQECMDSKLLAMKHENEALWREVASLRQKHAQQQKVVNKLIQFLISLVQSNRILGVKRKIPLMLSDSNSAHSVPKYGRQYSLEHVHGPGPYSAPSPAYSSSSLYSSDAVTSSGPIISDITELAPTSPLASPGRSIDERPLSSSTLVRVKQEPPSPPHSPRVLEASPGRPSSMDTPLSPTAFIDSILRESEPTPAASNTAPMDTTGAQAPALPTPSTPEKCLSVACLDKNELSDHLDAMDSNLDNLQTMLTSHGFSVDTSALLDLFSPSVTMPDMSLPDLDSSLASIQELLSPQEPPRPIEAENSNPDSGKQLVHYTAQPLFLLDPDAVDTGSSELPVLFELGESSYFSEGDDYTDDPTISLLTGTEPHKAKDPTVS

[7] = target: Beta-2 adrenergic receptor (Homo sapiens, UniProt P07550); assay: ADRB2 activation measured by internalization – cell-based, FAP fluorogen, flow cytometry, cherry pick 1, dose response (AID 588763); assay type: functional
[8] = target: Sphingosine 1-phosphate receptor 1 (Homo sapiens, UniProt P21453); assay type: functional;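 also: Tango beta-arrestin reporter U2OS cells stimulated with S1P near its EC80; inhibitor potency meaning antagonism of receptor activation by the natural agonist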
[9] = non-specific 3'UTR reporter inhibition in Clone20-Shn3RL – cell-based, Renilla luciferase, cherry-picked, counter-screen for Shn3 inhibitor project, dose response (AID 624133); assay type: functional
HeLa = assay: Cytotoxicity counterscreen assay for transcriptional activators of heat shock protein 70 (Hsp70). [Related pubchem assays: 1203, 1252 ]; assay type: functional; conditions: Homo sapiens;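 also: cells exposed to compound for 16 hours before readout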
[10] = Trypanosoma cruzi growth suppression in host cells – NIH3T3 host cells, beta-gal luminescence, confirmation (AID 2044); assay type: functional, cell-based;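 also: intracellular parasites grown in NIH/3T3 mouse fibroblasts as host cells; luminescent beta-galactosidase reporter signal from transgenic T. cruzi replicating inside host cells; inhibitors lower the luminescence signal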
[11] = viability of PTEN-deleted HCT116 cells – cell-based, HCT116 PTEN knockout, dose response (AID 1047); assay type: functional;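 also: HCT116 colon tumor cells with PTEN knocked out; cells exposed to compound for 60 hours before readout; potency for loss of cell viability measured by luminescence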
HEK293 [12] = assay: cells; assay type: functional, cell-based; conditions: Homo sapiens; remark: listed apart in the source
INS1 = assay: INS-1E survival protection against cytokine death – cell-based, luminescence, retest, dose response (AID 449756); assay type: functional; conditions: Rattus norvegicus;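 also: cell death triggered by IL-1 beta plus TNF-alpha plus IFN-gamma mixture; protective hits raise ATP signal compared with cytokine alone wells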
HEK293 [13] = assay: inhibition of NOD1-driven NF-kB reporter – cell-based, luminescence, uHTS, primary screen (AID 1578); assay type: functional; conditions: Homo sapiens
[14] = loss of viability in HepG2 cells – cell-based, CellTiter-Glo, cherry-picked, cytotoxicity control for Shn3 inhibitor project, dose response (AID 624134); assay type: functional
[15] = target: Sphingosine 1-phosphate receptor 4 (Homo sapiens, UniProt O95977); assay: Fluorescence dose response cell-based high throughput screening assay for antagonists of the Sphingosine 1-Phosphate Receptor 4 (S1P4). [Related pubchem assays: 1524 (Confirmation in triplicates.), 1510 (Primary screen.)]; assay type: functional
[16] = target: Peroxisome proliferator-activated receptor gamma/Nuclear receptor coactivator 1 (Homo sapiens, UniProt P37231); assay type: functional;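 also: agonist potency as compounds enhance coactivator SRC-1 recruitment to PPARgamma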
[17] = target: T2, Mannose-6-phosphate isomerase (Homo sapiens, UniProt P34949); assay: MPI inhibition at elevated mannose 6-phosphate – biochemical, fluorescence intensity, high mannose 6-phosphate, primary screen (AID 1220)
T2 sequence (P34949 whole entry): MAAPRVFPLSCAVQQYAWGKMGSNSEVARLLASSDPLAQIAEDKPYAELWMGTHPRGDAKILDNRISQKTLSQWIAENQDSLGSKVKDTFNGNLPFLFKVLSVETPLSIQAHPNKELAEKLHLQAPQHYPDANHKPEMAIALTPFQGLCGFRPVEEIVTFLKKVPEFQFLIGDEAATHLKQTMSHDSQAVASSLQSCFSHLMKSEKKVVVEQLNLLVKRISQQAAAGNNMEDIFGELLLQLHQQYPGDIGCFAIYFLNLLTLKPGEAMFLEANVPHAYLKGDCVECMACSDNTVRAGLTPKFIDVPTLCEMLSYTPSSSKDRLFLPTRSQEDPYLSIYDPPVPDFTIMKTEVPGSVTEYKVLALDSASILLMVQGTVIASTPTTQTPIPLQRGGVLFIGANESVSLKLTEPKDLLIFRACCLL

[18] = target: Induced myeloid leukemia cell differentiation protein Mcl-1 (Homo sapiens, UniProt Q07820); assay type: functional
Induced myeloid leukemia cell differentiation protein Mcl-1, sequence (Q07820 whole entry): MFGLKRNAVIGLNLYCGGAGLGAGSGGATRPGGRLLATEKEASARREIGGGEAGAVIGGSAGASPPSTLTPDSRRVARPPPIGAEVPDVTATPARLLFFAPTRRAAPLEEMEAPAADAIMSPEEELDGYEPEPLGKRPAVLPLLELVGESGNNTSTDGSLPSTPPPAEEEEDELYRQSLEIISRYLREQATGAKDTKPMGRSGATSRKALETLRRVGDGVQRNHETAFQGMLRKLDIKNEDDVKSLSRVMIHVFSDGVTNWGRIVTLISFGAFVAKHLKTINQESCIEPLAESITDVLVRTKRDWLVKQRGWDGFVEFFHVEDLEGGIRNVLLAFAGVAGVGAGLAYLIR

[19] = target: Peroxisome proliferator-activated receptor gamma/Nuclear receptor coactivator 3 (Homo sapiens, UniProt P37231); assay type: functional;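 also: agonist potency for raising coactivator recruitment to the receptor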
Peroxisome proliferator-activated receptor gamma/Nuclear receptor coactivator 3, sequence (P37231 whole entry): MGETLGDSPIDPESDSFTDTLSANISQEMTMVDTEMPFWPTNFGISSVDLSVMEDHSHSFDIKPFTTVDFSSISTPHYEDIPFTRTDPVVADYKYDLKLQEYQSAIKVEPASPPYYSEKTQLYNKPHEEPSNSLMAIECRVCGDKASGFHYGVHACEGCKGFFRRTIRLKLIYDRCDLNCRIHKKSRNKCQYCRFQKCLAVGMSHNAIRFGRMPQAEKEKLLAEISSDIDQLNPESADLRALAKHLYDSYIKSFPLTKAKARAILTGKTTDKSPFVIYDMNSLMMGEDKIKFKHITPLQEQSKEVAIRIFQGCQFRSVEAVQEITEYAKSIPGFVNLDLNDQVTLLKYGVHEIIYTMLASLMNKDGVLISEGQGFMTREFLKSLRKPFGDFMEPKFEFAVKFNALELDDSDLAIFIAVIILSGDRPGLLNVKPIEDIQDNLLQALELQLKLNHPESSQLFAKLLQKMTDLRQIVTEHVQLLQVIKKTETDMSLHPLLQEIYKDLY
Peroxisome proliferator-activated receptor gamma/Nuclear receptor coactivator 3, sequence (Q9Y6Q9 whole entry, further chain): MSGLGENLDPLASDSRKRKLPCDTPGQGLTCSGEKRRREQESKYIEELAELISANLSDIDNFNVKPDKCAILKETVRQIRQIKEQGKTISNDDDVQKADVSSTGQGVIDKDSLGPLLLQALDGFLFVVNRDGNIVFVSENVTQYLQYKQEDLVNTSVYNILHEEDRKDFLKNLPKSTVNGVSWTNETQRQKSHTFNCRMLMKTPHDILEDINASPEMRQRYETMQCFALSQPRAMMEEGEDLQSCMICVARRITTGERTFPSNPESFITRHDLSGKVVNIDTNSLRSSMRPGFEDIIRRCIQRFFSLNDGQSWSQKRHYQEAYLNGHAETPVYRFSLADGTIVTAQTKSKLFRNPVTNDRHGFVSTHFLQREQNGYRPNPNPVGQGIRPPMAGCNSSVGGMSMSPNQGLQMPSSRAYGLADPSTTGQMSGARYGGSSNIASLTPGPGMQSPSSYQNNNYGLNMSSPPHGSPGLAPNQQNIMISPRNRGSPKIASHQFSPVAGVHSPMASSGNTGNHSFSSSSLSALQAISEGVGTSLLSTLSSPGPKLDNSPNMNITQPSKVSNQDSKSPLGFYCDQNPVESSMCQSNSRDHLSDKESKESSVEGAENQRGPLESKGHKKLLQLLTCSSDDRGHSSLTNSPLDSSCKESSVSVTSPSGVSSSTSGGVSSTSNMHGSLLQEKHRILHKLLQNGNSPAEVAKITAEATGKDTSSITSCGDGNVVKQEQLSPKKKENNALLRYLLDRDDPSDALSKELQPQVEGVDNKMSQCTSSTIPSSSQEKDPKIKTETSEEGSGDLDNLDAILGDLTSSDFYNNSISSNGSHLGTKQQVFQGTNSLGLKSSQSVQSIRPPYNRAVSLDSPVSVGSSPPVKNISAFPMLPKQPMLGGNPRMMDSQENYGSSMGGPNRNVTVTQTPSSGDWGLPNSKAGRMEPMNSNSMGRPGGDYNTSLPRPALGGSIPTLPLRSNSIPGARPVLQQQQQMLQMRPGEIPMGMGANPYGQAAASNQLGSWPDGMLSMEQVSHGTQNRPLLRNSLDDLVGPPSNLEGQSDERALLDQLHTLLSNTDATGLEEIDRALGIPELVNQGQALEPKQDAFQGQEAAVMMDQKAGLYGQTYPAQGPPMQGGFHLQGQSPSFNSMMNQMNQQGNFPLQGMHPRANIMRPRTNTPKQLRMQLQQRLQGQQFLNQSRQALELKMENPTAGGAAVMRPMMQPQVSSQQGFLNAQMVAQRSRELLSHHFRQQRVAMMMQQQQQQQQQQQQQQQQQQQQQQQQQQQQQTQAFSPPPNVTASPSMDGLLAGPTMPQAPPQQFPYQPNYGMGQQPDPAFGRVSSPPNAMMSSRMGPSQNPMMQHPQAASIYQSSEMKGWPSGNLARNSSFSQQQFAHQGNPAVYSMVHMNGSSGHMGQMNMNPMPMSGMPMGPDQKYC

[20] = target: Peroxisome proliferator-activated receptor gamma/Nuclear receptor coactivator 2 (Homo sapiens, UniProt P37231); assay type: functional;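 also: agonist potency for raising coactivator recruitment to the receptor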
Peroxisome proliferator-activated receptor gamma/Nuclear receptor coactivator 2, sequence (P37231 whole entry): as the sequence (P37231 whole entry) above
Peroxisome proliferator-activated receptor gamma/Nuclear receptor coactivator 2, sequence (Q15596 whole entry, further chain): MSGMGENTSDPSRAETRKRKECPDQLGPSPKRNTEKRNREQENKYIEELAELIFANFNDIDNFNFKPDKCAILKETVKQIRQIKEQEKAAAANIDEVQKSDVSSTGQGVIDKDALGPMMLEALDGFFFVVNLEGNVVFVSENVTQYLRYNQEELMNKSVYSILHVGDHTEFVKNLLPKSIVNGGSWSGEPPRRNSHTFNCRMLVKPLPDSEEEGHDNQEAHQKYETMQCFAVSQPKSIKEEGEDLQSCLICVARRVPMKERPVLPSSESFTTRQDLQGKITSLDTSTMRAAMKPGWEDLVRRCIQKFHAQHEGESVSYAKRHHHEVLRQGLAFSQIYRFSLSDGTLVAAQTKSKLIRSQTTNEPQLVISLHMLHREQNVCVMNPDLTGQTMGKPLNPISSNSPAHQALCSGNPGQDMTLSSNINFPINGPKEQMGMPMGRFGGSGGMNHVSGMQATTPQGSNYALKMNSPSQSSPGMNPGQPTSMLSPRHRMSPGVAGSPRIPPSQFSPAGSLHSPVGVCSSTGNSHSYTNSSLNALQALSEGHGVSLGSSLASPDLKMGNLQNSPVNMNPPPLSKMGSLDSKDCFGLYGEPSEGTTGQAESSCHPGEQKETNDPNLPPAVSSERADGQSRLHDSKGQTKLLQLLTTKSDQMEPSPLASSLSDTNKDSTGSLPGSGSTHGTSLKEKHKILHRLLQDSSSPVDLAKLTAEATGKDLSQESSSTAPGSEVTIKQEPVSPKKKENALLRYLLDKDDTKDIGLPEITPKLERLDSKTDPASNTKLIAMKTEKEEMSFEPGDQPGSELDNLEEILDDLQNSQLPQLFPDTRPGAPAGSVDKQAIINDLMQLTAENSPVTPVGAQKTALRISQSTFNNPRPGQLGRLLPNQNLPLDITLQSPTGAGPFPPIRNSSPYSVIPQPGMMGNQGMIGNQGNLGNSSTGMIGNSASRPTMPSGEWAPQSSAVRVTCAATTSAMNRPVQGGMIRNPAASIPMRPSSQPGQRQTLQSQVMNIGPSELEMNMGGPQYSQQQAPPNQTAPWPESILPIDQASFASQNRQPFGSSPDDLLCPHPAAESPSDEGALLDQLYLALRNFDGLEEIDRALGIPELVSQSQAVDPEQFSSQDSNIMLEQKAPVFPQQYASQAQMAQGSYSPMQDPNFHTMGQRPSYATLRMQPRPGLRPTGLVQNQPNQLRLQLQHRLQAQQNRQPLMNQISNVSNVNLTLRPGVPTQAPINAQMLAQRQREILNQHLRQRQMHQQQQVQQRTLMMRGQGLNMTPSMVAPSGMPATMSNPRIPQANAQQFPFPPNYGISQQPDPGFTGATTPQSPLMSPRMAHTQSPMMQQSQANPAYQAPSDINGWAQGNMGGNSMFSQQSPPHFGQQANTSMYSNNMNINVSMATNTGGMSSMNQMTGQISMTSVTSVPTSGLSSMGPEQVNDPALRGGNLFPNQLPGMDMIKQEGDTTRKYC

Large T antigen = Large T antigen (Simian virus 40, UniProt P03070); assay type: functional, Betapolyomavirus macacae;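 also: Confirmatory-stage PubChem screen for compounds that inhibit SV40 T antigen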
Large T antigen, sequence (P03070 whole entry, the tested form may be a part): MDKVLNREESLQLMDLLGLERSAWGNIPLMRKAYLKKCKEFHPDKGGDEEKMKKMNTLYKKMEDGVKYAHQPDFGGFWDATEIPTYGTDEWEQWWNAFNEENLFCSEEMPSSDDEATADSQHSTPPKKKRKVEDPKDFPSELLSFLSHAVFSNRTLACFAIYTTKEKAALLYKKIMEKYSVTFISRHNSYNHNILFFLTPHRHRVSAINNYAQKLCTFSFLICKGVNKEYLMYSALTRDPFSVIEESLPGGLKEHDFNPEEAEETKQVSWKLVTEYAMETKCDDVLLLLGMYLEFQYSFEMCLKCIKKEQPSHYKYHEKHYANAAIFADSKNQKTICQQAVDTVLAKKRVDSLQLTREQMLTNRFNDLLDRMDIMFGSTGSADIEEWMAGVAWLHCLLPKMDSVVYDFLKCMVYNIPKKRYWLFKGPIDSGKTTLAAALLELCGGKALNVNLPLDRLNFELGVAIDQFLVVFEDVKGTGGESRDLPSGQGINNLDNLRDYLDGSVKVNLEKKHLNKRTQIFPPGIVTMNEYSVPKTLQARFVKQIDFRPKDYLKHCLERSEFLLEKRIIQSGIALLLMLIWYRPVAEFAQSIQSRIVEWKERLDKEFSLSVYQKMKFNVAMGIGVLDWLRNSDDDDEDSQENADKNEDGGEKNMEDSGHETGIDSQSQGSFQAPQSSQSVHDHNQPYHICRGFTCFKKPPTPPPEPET

[21] = target: T3, RNA-binding protein pos-1 (Caenorhabditis elegans, UniProt G5EF15); assay: disruptors of C. elegans POS-1 RNA interaction – biochemical, fluorescence polarization, dose response (AID 1964);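 also: purified POS-1 fused to maltose binding protein made in E. coli; potency of compounds blocking POS-1 binding to fluorescent RNA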
T3 sequence (G5EF15 whole entry): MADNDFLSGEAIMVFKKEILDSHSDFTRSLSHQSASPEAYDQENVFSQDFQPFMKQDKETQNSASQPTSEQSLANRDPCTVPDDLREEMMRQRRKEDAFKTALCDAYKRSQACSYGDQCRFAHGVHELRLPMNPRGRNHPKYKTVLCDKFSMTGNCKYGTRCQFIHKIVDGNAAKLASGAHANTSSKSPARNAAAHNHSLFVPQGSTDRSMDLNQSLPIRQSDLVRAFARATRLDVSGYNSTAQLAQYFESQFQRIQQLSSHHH

[22] = target: T4, Replicative DNA helicase DnaB (Mycobacterium tuberculosis, UniProt P9WMR3); assay: DnaB intein splicing inhibitors, dose response, biochemical, cell-free fluorescence (AID 449749); assay type: functional
T4 sequence (P9WMR3 whole entry): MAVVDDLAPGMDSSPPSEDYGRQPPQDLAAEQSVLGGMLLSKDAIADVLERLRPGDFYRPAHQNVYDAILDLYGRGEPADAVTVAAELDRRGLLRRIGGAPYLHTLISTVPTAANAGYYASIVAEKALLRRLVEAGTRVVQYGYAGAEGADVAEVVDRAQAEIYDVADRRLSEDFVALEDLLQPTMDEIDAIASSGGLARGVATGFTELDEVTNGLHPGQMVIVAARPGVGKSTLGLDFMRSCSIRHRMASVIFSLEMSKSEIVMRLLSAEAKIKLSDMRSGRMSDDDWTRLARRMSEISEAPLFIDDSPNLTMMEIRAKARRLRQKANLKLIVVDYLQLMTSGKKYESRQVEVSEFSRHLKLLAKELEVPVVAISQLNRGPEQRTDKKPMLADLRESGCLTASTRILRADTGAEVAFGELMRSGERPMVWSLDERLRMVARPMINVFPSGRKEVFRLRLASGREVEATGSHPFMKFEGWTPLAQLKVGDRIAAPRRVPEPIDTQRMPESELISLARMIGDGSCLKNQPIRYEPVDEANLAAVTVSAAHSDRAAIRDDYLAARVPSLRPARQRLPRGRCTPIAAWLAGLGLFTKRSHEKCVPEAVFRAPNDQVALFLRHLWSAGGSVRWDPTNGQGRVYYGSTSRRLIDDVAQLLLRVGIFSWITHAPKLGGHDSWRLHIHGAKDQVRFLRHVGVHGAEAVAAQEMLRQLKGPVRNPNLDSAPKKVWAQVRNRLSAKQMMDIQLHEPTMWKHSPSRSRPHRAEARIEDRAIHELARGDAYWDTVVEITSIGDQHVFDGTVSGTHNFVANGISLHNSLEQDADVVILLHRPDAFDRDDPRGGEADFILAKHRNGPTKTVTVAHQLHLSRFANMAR

[23] = antiviral protection against BTV-induced cell death – arbovirus, BSR cells, confirmation (AID 1250); assay type: functional;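 also: protection from viral cytopathic effect measured as cell viability by ATP luminescence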
[24] = target: T5, Zinc finger protein mex-5 (Caenorhabditis elegans, UniProt Q9XUB2); assay: potency of MEX-5 RNA-binding blockers – biochemical, C. elegans, fluorescence polarization, dose response (AID 1960)
T5 sequence (Q9XUB2 whole entry): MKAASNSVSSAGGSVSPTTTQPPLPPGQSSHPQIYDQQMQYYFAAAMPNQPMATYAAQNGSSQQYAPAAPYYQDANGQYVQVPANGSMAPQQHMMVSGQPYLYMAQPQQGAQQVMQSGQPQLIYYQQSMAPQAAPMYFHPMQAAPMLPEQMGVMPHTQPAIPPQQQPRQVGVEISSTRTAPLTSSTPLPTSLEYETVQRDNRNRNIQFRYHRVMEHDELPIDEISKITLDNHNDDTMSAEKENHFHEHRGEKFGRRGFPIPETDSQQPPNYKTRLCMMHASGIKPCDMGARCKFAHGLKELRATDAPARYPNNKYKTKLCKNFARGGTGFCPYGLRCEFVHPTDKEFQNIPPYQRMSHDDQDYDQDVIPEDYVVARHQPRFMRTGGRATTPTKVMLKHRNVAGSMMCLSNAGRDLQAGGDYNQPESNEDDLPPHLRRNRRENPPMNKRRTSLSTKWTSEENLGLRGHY

Protein RecA = target: T6, Protein RecA (Mycobacterium tuberculosis, UniProt P9WHJ3); assay: Fluorescence Cell-Free Homogeneous Dose Retest to Identify Inhibitors of RecA-Intein Splicing Activity. [Related pubchem assays (depositor defined):AID2097, AID2223, AID489010, AID492950]; assay type: functional
T6 sequence (P9WHJ3 whole entry): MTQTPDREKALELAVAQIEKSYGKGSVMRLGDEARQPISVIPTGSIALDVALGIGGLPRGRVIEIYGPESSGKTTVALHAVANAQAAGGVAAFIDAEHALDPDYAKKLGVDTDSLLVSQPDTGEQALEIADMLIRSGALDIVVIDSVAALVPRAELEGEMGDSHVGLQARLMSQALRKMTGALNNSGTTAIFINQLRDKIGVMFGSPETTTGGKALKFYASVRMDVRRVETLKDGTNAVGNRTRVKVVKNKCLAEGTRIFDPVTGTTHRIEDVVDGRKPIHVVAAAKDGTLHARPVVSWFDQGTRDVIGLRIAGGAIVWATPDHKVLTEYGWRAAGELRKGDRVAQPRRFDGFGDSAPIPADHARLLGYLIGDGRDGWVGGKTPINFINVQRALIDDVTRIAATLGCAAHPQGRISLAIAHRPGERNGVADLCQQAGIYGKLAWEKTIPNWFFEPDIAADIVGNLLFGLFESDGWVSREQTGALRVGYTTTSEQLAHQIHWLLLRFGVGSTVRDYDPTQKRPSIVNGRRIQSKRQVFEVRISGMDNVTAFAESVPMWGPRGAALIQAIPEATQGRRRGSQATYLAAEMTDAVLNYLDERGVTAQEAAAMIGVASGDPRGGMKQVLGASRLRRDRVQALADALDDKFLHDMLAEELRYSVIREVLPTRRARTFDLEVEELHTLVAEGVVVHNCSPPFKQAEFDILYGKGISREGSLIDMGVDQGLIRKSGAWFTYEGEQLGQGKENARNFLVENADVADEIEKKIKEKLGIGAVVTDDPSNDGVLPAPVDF

Cc1ccc(-c2nc(NC(=O)c3nn(C)cc3[N+](=O)[O-])sc2C)cc1C
inactive: EC50 [7] 64.1 µM
18.1 µM (not active): IC50 [8]
inconclusive: EC50 [6] 4.28 µM
active: IC50 (HEK293 [1]) 17.7 µM | IC50 (HEK293 [2]) 3.82 µM | AC50 [3] 2.25 µM | EC50 [4] 4.71 µM | EC50 [5] 0.207 µM | AC50 [9] 6.06 µM | CC50 (HeLa) 2.08 µM | EC50 [10] 2.7 µM | EC50 [11] 0.224 µM | IC50 (HEK293 [12]) 6.72 µM | AC50 (INS1) 3.62 µM | EC50 (HEK293 [13]) 9.93 µM | AC50 [14] 18.2 µM | IC50 [15] 1 µM

COc1ccc(N2CCC(CNC(=O)Nc3ccccc3)C2)cc1 (stereo not drawn)
> 79.4 µM (not active): EC50 [16] | EC50 [19] | EC50 [20]
active: IC50 [18] 2.58 µM | IC50 (Large T antigen) 10.6 µM
> 50 µM (not active): IC50 [17]

O=C1NC(=O)N(Cc2ccc(F)cc2)C(=O)/C1=C/NNC(=O)c1ccccc1O
active: EC50 [21] 10.1 µM | AC50 [22] 6.55 µM | IC50 [23] > 100 µM | EC50 [24] 9.33 µM | EC50 (Protein RecA) 21.9 µM
